Laboratory results published in PubChem BioAssay (NCI).
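Values below derive from 48-hour exposures of cells grown in 96-well plates, with endpoints linearly interpolated between the two concentrations bracketing the appropriate inhibition level. Here, GI50 denotes the concentration required for 50% inhibition of growth. At the TGI there is no net growth.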

What was measured:
Assay in all cases: NCI anticancer screen, dose series, 48 h
A498 renal = test system: A498 renal
PC-3 prostate = test system: PC-3 prostate
SF-268 CNS = test system: SF-268 CNS
HOP-62 NSCLC = test system: HOP-62 NSCLC
SNB-19 CNS = test system: SNB-19 CNS
T-47D breast = test system: T-47D breast
A549 NSCLC = test system: A549 NSCLC
HL-60(TB) leukemia = test system: HL-60(TB) leukemia
NCI-H23 lung = test system: NCI-H23 lung
ACHN renal = test system: ACHN renal
SF-295 CNS = test system: SF-295 CNS
DU-145 prostate = test system: DU-145 prostate
786-0 renal = test system: 786-0 renal
HCC-2998 colon = test system: HCC-2998 colon
SW-620 colon = test system: SW-620 colon
KM12 colon = test system: KM12 colon
UO-31 renal = test system: UO-31 renal
HT29 colon = test system: HT29 colon
CAKI-1 renal = test system: CAKI-1 renal
CCRF-CEM leukemia = test system: CCRF-CEM leukemia
HCT-116 colon = test system: HCT-116 colon
TK-10 renal = test system: TK-10 renal
HS 578T breast = test system: HS 578T breast
K-562 leukemia = test system: K-562 leukemia
UACC-62 melanoma = test system: UACC-62 melanoma
MALME-3M melanoma = test system: MALME-3M melanoma
SF-539 CNS = test system: SF-539 CNS
OVCAR-3 ovarian = test system: OVCAR-3 ovarian
EKVX NSCLC = test system: EKVX NSCLC

Work on `Cn1cc(-c2nc3c(F)cc4[nH]ncc4c3c3c2CCCC3)c(C(F)(F)F)n1` yielded a TGI (A498 renal) of 4.88 µM, a GI50 (PC-3 prostate) of 14.6 µM and a TGI (PC-3 prostate) greater than 100 µM. For the same compound, the GI50 (SF-268 CNS) was 12 µM, the TGI (SF-268 CNS) was 55.3 µM and the GI50 (HOP-62 NSCLC) was 6.22 µM. For the same compound, the TGI (HOP-62 NSCLC) was 44 µM, the GI50 (SNB-19 CNS) was 26.8 µM and the TGI (SNB-19 CNS) was greater than 100 µM. It also gave a GI50 (T-47D breast) of 9.51 µM, a TGI (T-47D breast) of 76.9 µM and a GI50 (A549 NSCLC) of 5.7 µM. For the same compound, the TGI (A549 NSCLC) was 59.4 µM, the GI50 (HL-60(TB) leukemia) was 5.5 µM and the TGI (HL-60(TB) leukemia) was 28.2 µM. For the same compound, the GI50 (NCI-H23 lung) was 8.73 µM, the TGI (NCI-H23 lung) was greater than 100 µM and the GI50 (ACHN renal) was 5.05 µM. The TGI (ACHN renal) was greater than 100 µM, the GI50 (SF-295 CNS) was 9.57 µM and the TGI (SF-295 CNS) was 69.8 µM. The GI50 (DU-145 prostate) was 10.9 µM, the TGI (DU-145 prostate) was 77.7 µM and the GI50 (786-0 renal) was 10.7 µM. The TGI (786-0 renal) was 27.7 µM, the GI50 (HCC-2998 colon) was 16.4 µM and the TGI (HCC-2998 colon) was 49.3 µM. It also gave a GI50 (SW-620 colon) of 11.3 µM, a TGI (SW-620 colon) of 48.7 µM and a GI50 (KM12 colon) of 2.85 µM. The TGI (KM12 colon) was greater than 100 µM, the GI50 (UO-31 renal) was 4.26 µM and the TGI (UO-31 renal) was 19.5 µM. For the same compound, the GI50 (HT29 colon) was 9.05 µM, the TGI (HT29 colon) was greater than 100 µM and the GI50 (CAKI-1 renal) was 3.33 µM. For the same compound, the TGI (CAKI-1 renal) was greater than 100 µM, the GI50 (CCRF-CEM leukemia) was 4.66 µM and the TGI (CCRF-CEM leukemia) was greater than 100 µM. For the same compound, the GI50 (HCT-116 colon) was 4.3 µM, the TGI (HCT-116 colon) was 22.1 µM and the GI50 (TK-10 renal) was 10.1 µM. For the same compound, the TGI (TK-10 renal) was 75 µM, the GI50 (HS 578T breast) was 4.59 µM and the TGI (HS 578T breast) was 27.2 µM. For the same compound, the GI50 (K-562 leukemia) was 8.25 µM, the TGI (K-562 leukemia) was greater than 100 µM and the GI50 (UACC-62 melanoma) was 5.54 µM. The TGI (UACC-62 melanoma) was 28.3 µM, the GI50 (MALME-3M melanoma) was 8.87 µM and the TGI (MALME-3M melanoma) was 34.2 µM. It also gave a GI50 (SF-539 CNS) of 7.55 µM, a TGI (SF-539 CNS) of 22.8 µM and a GI50 (OVCAR-3 ovarian) of 23.2 µM. The TGI (OVCAR-3 ovarian) was 75.8 µM, the GI50 (EKVX NSCLC) was 9.47 µM and the TGI (EKVX NSCLC) was 36.6 µM.
